# Source: patent publication US11701332B2, “Methods and compositions for treating female sexual interest and arousal disorder” (priority 2020, dated 2023)
# Legend:
# [1] = in vivo; cited from earlier work
# [2] = test system: libido; conditions: after injection; cited from earlier work
# [3] = target: peripheral androgen receptors (AR) (Homo sapiens, UniProt P10275); conditions: 450 mg darolutamide twice daily, person
# Method: A person diagnosed with FSIAD is administered a 30 mg testosterone enanthate injection weekly, and a dose of 450 mg of darolutamide twice daily to achieve partial (90%) AR blockage peripherally, rather than total (100%) AR blockage.
# [4] = in vivo; cited from earlier work; remark: listed apart in the source
# [5] = cited from earlier work
# [6] = test system: libido; conditions: sublingual testosterone, short testosterone spike; cited from earlier work
# [7] = test system: libido; conditions: biological women receiving testosterone as part of gender transition therapy; cited from earlier work
# Chain of peripheral androgen receptors (AR) (P10275 whole entry): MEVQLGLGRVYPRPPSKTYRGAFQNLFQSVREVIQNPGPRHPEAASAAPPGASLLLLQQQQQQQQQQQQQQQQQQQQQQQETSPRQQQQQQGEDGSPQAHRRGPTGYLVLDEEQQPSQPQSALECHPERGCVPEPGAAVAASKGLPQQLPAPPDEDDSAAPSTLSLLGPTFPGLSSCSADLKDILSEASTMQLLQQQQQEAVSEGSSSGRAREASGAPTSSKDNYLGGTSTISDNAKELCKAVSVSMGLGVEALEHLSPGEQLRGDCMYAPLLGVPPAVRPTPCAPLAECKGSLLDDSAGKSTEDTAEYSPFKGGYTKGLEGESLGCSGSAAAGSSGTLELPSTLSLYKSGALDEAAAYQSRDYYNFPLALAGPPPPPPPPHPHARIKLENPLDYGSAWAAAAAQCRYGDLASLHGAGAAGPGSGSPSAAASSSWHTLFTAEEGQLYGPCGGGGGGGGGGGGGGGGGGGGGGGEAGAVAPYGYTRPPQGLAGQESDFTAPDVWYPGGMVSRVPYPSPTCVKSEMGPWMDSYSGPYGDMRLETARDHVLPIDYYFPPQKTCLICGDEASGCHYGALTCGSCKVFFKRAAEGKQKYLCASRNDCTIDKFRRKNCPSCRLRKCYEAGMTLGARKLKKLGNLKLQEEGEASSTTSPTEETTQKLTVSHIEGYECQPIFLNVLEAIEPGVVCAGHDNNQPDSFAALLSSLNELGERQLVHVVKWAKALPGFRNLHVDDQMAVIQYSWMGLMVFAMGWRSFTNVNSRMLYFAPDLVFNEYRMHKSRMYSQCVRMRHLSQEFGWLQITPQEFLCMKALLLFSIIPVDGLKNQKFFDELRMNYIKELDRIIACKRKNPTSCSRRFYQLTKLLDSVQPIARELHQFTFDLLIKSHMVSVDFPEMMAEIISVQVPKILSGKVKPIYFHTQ
structure (smiles),measurement,setting,value
CC(O)(CS(=O)(=O)c1ccc(F)cc1)C(=O)Nc1ccc(C#N)c(C(F)(F)F)c1 (stereo not drawn) [bicalutamide],crossing of the blood-brain barrier,[1],do not cross the blood-brain barrier
CCCC[C@H](NC(C)=O)C(=O)N[C@H]1CC(=O)NCCCC[C@@H](C(=O)O)NC(=O)[C@H](Cc2c[nH]c3ccccc23)NC(=O)[C@H](CCCN=C(N)N)NC(=O)[C@@H](Cc2ccccc2)NC(=O)[C@H](Cc2cnc[nH]2)NC1=O [bremelanotide],libido boost,[2],temporary libido boost shortly after injection
CC(O)c1cc(C(=O)N[C@@H](C)Cn2ccc(-c3ccc(C#N)c(Cl)c3)n2)[nH]n1 (stereo partly drawn) [darolutamide],crossing of the blood-brain barrier,[1],do not cross the blood-brain barrier
same,AR blockage peripherally,[3],90%
same,adverse effects,[4],does not cause major adverse effects
O=c1[nH]c2ccccc2n1CCN1CCN(c2cccc(C(F)(F)F)c2)CC1 [flibanserin],adverse effects,[4],low blood pressure
C[C@H]1CC(=O)C[C@@H]2CC[C@H]3[C@@H]4CC[C@H](O)[C@@]4(C)CC[C@@H]3[C@]21C [mesterolone],oral bioavailability,[5],3%
C[C@]12CC[C@H]3[C@@H](CCC4=CC(=O)CC[C@@]43C)[C@@H]1CC[C@@H]2O [testosterone],time until libido boost,[6],3.5 h
same,women reporting an increase in libido,[7],71%
